Values of other authors, collected in patent US12582632B2, “Inhibition of neurological injuries due to infections via administration of Butanetap and analogs thereof” (priority 2021, dated 2026).

Conditions: 3 phase 3 clinical studies, failed; cited from earlier work

In the case of CN1CC[C@@]2(C)c3cc(OC(=O)Nc4ccccc4)ccc3N(C)[C@@H]12 [Phenserine, (−)-N-phenylcarbamoyl eseroline], the “side effects in clinical studies” value is listed as “high cholinomimetic side effects”.
